Columns and labels:
Format in all cases: in vivo, Arabidopsis thaliana
[1] = test system: Arabidopsis mutant line Cesa1_G1009D; assay: Growth inhibition of Arabidopsis lines in 48-well plates, tolerance factor from IC50; settings: growth inhibition seven to ten days after seeding
From the text: (§1) For selection of cellulose biosynthesis inhibitor resistant plants EMS mutagenized seed populations of Arabidopsis thaliana are used. EMS mutagenized seed populations are either bought from Lehle Seeds (1102 South Industrial Blvd. Suite D, Round Rock, Texas USA) or are generated as described elsewhere (Heim D R, et. al. (1989) Plant Physiol. 90: 146-150). Causative mutations in CESA wildtype sequences (e.g. SEQ ID NO: 1 or 3) are identified as described by Scheible W R et. al. (2001, Proc. Natl. Acad. of Sci. 98: 10079-10084), McCourt et. al. (WO2013/142968) or with the use of next generation sequencing methods as described by Austin R S, et. al. (2011) Plant Journal 67: 715-725.
(§2) Selected Arabidopsis thaliana lines were assayed for improved resistance to azines like 6-cyclopentyl-N4-(2,3,4,5,6-pentafluorophenyl)-1,3,5-triazine-2,4-diamine; 6-(1-fluoro-1-methyl-ethyl)-N4-(2,3,4,5,6-pentafluorophenyl)-1,3,5-triazine-2,4-diamine; 6-cyclohexyl-N2-(2,3,4,5,6-pentafluorophenyl)-1,3,5-triazine-2,4-diamine; 6-(2,6-difluorophenyl)-N2-(2,3,5,6-tetrafluorophenyl)-1,3,5-triazine-2,4-diamine; N2-(4-chloro-3,5,6-trifluoro-2-pyridyl)-6-(1-fluoro-1-methyl-ethyl)-1,3,5-triazine-2,4-diamine in 48-well plates. Therefore, M2 or M3 seeds are surface sterilized by stirring for 5 min in ethanol+water (70+30 by volume), rinsing one time with ethanol+water (70+30 by volume) and two times with sterile, deionized water. The seeds are resuspended in 0.1% agar dissolved in water (w/v) Four to five seeds per well are plated on solid nutrient medium consisting of half-strength murashige skoog nutrient solution, pH 5.8 (Murashige and Skoog (1962) Physiologia Plantarum 15: 473-497). Compounds are dissolved in dimethylsulfoxid (DMSO) and added to the medium prior solidification (final DMSO concentration 0.1%). Multi well plates are incubated in a growth chamber at 22° C., 75% relative humidity and 110 μmol Phot*m^−2*s^−1 with 14:10 h light:dark photoperiod. Growth inhibition is evaluated seven to ten days after seeding in comparison to wild type plants. Tolerance factors are calculated based on IC50 values of growth inhibition of transformed versus non-transformed Arabidopsis plants (Table 3).

[2] = test system: Arabidopsis mutant line Cesa1_G1013R; assay: as above; settings: growth inhibition seven to ten days after seeding
From the text: as §1, §2

[3] = test system: Arabidopsis mutant line Cesa1_P1010L; assay: as above; settings: growth inhibition seven to ten days after seeding
From the text: as §1, §2

[4] = test system: Arabidopsis mutant line Cesa3_S1037F; assay: as above; settings: growth inhibition seven to ten days after seeding
From the text: as §1, §2

[5] = test system: Arabidopsis mutant line Cesa3_S1040L; assay: as above; settings: growth inhibition seven to ten days after seeding
From the text: as §1, §2

[6] = test system: Arabidopsis mutant line Cesa3_S983F; assay: as above; settings: growth inhibition seven to ten days after seeding
From the text: as §1, §2

[7] = test system: wildtype Arabidopsis plants; assay: as above; settings: growth inhibition seven to ten days after seeding
From the text: as §1, §2

A. thaliana WT L. erecta = assay: Greenhouse phytotox, post-emergent treatment 6 weeks after sowing
Description: (§3) Additionally, M2 or M3 Arabidopsis plants are tested for improved tolerance to cellulose biosynthesis-inhibiting herbicides in greenhouse studies (e. g. with the following cellulose biosynthesis-inhibiting herbicides: 6-cyclopentyl-N4-(2,3,4,5,6-pentafluorophenyl)-1,3,5-triazine-2,4-diamine; 6-(1-fluoro-1-methyl-ethyl)-N4-(2,3,4,5,6-pentafluorophenyl)-1,3,5-triazine-2,4-diamine; N4-(4-chloro-3,5,6-trifluoro-2-pyridyl)-6-(1-fluoro-1-methyl-ethyl)-1,3,5-triazine-2,4-diamine; 6-(2,6-difluorophenyl)-N4-(2,3,5,6-tetrafluorophenyl)-1,3,5-triazine-2,4-diamine; N4-(4-bromo-2,3,5,6-tetrafluoro-phenyl)-6-(1-fluoro-1-methyl-ethyl)-1,3,5-triazine-2,4-diamine.

[8] = test system: Cesa1_G1009D, fpx2-3 mutant line; assay: as above
Description: as §3

[9] = test system: Cesa1_G1013R, fpx2-1 mutant line; assay: as above
Description: as §3

[10] = test system: Cesa1_P1010L, fpx2-2 mutant line; assay: as above
Description: as §3

[11] = test system: Cesa3_S1037F, fpx1-2 mutant line; assay: as above
Description: as §3

[12] = test system: Cesa3_S1040L, fpx1-1 mutant line; assay: as above
Description: as §3

[13] = test system: Cesa3_S983F, fpx1-3 mutant line; assay: as above
Description: as §3

For `Nc1nc(Nc2c(F)c(F)c(F)c(F)c2F)nc(C2CCCC2)n1` [6-cyclopentyl-N4-(2,3,4,5,6-pentafluorophenyl)-1,3,5-triazine-2,4-diamine], the “Relative tolerance rate (wildtype = 1.0)” value [1] was 3, the “Relative tolerance rate (wildtype = 1.0)” value [2] was 25 and the “Relative tolerance rate (wildtype = 1.0)” value [3] was 3. The “Relative tolerance rate (wildtype = 1.0)” value [4] was 75, the “Relative tolerance rate (wildtype = 1.0)” value [5] was 56 and the “Relative tolerance rate (wildtype = 1.0)” value [6] was 75. The “Relative tolerance rate (wildtype = 1.0)” value [7] was 1, the “Phytotox value on a scale from 0-100 (100 is 100% damage)” value (from here on “Phytotox value … (100 is 100% damage)”) (A. thaliana WT L. erecta; 7.88 g ai/ha) was 68 and the “Phytotox value … (100 is 100% damage)” value (A. thaliana WT L. erecta; 15.75 g ai/ha) was 80. For the same compound, the “Phytotox value … (100 is 100% damage)” value (A. thaliana WT L. erecta; 31.5 g ai/ha) was 78, the “Phytotox value … (100 is 100% damage)” value (A. thaliana WT L. erecta; 63 g ai/ha) was 98 and the “Phytotox value … (100 is 100% damage)” value ([8]; 7.88 g ai/ha) was 45. The “Phytotox value … (100 is 100% damage)” value ([8]; 15.75 g ai/ha) was 63, the “Phytotox value … (100 is 100% damage)” value ([8]; 31.5 g ai/ha) was 73 and the “Phytotox value … (100 is 100% damage)” value ([8]; 63 g ai/ha) was 75. For the same compound, the “Phytotox value … (100 is 100% damage)” value ([9]; 7.88 g ai/ha) was 38, the “Phytotox value … (100 is 100% damage)” value ([9]; 15.75 g ai/ha) was 55 and the “Phytotox value … (100 is 100% damage)” value ([9]; 31.5 g ai/ha) was 65. The “Phytotox value … (100 is 100% damage)” value ([9]; 63 g ai/ha) was 80, the “Phytotox value … (100 is 100% damage)” value ([10]; 7.88 g ai/ha) was 63 and the “Phytotox value … (100 is 100% damage)” value ([10]; 15.75 g ai/ha) was 70. The “Phytotox value … (100 is 100% damage)” value ([10]; 31.5 g ai/ha) was 78, the “Phytotox value … (100 is 100% damage)” value ([10]; 63 g ai/ha) was 93 and the “Phytotox value … (100 is 100% damage)” value ([11]; 7.88 g ai/ha) was 55. The “Phytotox value … (100 is 100% damage)” value ([11]; 15.75 g ai/ha) was 58, the “Phytotox value … (100 is 100% damage)” value ([11]; 31.5 g ai/ha) was 70 and the “Phytotox value … (100 is 100% damage)” value ([11]; 63 g ai/ha) was 78. The “Phytotox value … (100 is 100% damage)” value ([12]; 7.88 g ai/ha) was 0, the “Phytotox value … (100 is 100% damage)” value ([12]; 15.75 g ai/ha) was 5 and the “Phytotox value … (100 is 100% damage)” value ([12]; 31.5 g ai/ha) was 35. The “Phytotox value … (100 is 100% damage)” value ([12]; 63 g ai/ha) was 68, the “Phytotox value … (100 is 100% damage)” value ([13]; 7.88 g ai/ha) was 25 and the “Phytotox value … (100 is 100% damage)” value ([13]; 15.75 g ai/ha) was 65. For the same compound, the “Phytotox value … (100 is 100% damage)” value ([13]; 31.5 g ai/ha) was 55 and the “Phytotox value … (100 is 100% damage)” value ([13]; 63 g ai/ha) was 73.
